According to patent US4442093A, “Method for administering 24,25-dihydroxycholecalciferol to persons suffering from hypercalcemia” (Kureha Kagaku Kogyo Kabushiki Kaisha, priority 1981, dated 1984):

Legend:
calcium level in serum = assay: Serum calcium in normal fasted rats (Example 2); assay type: in vivo, male Wistar-rats
Method: Four subgroups of male Wistar-rats (a subgroup consisting of 5 animals) were used as the test animals, and they were fasted one whole day before the test.
To the rats of the first group consisting of 2 subgroups, a solution of 24R,25-(OH)2 -D3 in the triglyceride ester used in Example 1 was orally administered once at a dose rate of 100 micrograms of the agent/kg body weight.
To the rats of the second group consisting of 2 subgroups, only the triglyceride used in Example 1 was administered orally, and while using them as control, the calcium level in their serum was determined as in the first group.

[1] = system: mononucleates (lymphocytes) of peripheral blood; assay: Blastoid-transformation of rat lymphocytes in peripheral blood, 3H-TdR uptake (Example 13); assay type: in vivo
Method: The effect of the present compound on the blastoid-transformation of rat lymphocytes in the peripheral blood was examined as follows: After mixing each of the blood specimens taken from the respective rats of the four groups in Example 11 added with heparin and RPMI-1640 culture medium at a weight ratio of 1:1, the mixture was added to Ficoll-Paque solution, and the thus obtained mixture was subjected to centrifugal separation at 400 G for 20 min to collect the layer of mononucleates. After washing the thus collected mononucleates three times with PRMI-1640 culture medium (in a liquid state), the washed mononucleates were suspended into RPMI-1640 culture medium added with 10% by weight of calf serum to be in concentration of 1.5×10^6 cells/ml. Hundred microliters of the thus prepared suspension was placed in the pit of Pharcon microtest II plate, and after adding a substance promoting cell division (hereinafter referred to as mitogen) and RPMI-1640 culture medium added with 10% by weight of calf serum to the thus placed suspension to make the total volume 200 microliters, the thus prepared mixture was incubated for 72 hours under a gas (a 95:5 by volume mixture of air and carbon dioxide saturated with moisture) flow at 37° C. ^3 H-methylthymidine of specific activity of 5 Ci/mmol was added to the mixture during incubation at the time 24 hours before the incubation was over in an amount corresponding to 0.5 micro Ci. After the incubation was over, the cells in the culture were collected by filtering the cultured mixture, and the amount of radioactive isotope uptaken into the cells was determined by a liquid scintillation counter. For reference, the mitogen used in the present test is concanavalin A for T-cell or lipopolysaccharide for B-cell.

magnesium level in serum = assay: Serum magnesium in hypermagnesemic chronic renal failure patients (Example 17); assay type: in vivo, human; settings: for Magnesium level in serum after administration: 10 days; for Magnesium level in serum before administration: baseline
Method: To the three patients of chronic renal failure showing the hypermagnesemic symptoms of nearly the same extent to each other, 24R,25-(OH)2 -D3 was orally administered in a form of soft capsule composition prepared in Example 6 at a daily dose of 2 to 5 micrograms for continuous 10 days. Magnesium level in their serum was determined before and after the administration following the ordinary method.

[2] = system: inorganic phosphate in serum; assay: Serum inorganic phosphate in rats given puromycin aminonucleoside (Example 19); assay type: in vivo, male Wistar rats; settings: hyperphosphatemia due to puromycin-amino-nucleoside
Method: Puromycin aminonucleoside (hereinafter abbreviated as AN) was dissolved in physiological saline solution to be the concentration of 15 mg of AN/ml.
The thus prepared solution was subcutaneously administered to […] in 9th to 10th week after birth divided equally into 3 groups once a day for continuous 5 days at a daily dose rate of 15 mg/kg body weight, and the administration of AN was suspended for the next 2 weeks. This cycle of 5 days of administration followed by 2 weeks of suspension of administration was repeated 5 times, and from the commencement of the 4th cycle, drinking water was substituted by one of the compositions for oral administration prepared in Example 18, namely, Composition A or Composition B to be taken ad lib by each one of the three groups of the rats for 38 days therefrom. […] As control, a group consisting of 8 male Wistar rats was used without giving AN and with the oral administration of aqueous 0.1% by weight isopropyl alcohol solution taken ad lib during the same 38 days as above. As comparative example, another group consisting of 8 male Wistar rats was used with the same administration of AN as in the test groups and with the oral administration of aqueous 0.1% by weight isopropyl alcohol taken ad lib as in the control group.

[3] = system: inorganic phosphate in serum; assay: Serum inorganic phosphate in chronic renal failure patients without hemodialysis (Example 20); assay type: in vivo, human
Method: Eight patients suffering from chronic renal failure and not being subjected to hemodialysis shown in Table 14 were treated by oral daily administration of 24R,25-(OH)2 -D3 in a form of the soft capsule composition obtained in Example 6 at a daily dose of 2 to 10 micrograms for 8 weeks. The concentration of inorganic phosphate in the serum of each patient before the above-mentioned administration and that after completion of the above-mentioned administration for 8 weeks were determined by the Molybdenum Blue method, the results being shown in Table 14.

[4] = 30-day repeated oral administration toxicity (Example 26); assay type: in vivo, ICR mouse; settings: 10 to 1000 µg/kg/day p.o., 30 days
Method: 24R,25-(OH)2 -D3 was dissolved in Panacete® 810 containing 1% by weight of ethanol, and the solution was forcibly p.o. administered once a day for 30 continuous days to each male or female ICR mouse of the groups shown in Table 20 at each one of the daily dose rates also shown in Table 20.
As the control, Panacete 810 was solely and forcibly p.o. administered to the mice of the same strain once a day for 30 continuous days.

[5] = 100 µg/kg/day oral 12 days with puromycin aminonucleoside

Compound: C=C1CC[C@H](O)C/C1=C/C=C1\CCC[C@]2(C)[C@@H]([C@H](C)CC[C@@H](O)C(C)(C)O)CC[C@@H]12 [24R,25-(OH)2 -D3]
- Calcium level in serum (calcium level in serum; 2 h after 100 µg/kg oral): 10.6 ± 0.3 mg/dL
- Calcium level in serum (calcium level in serum; 5 h after 100 µg/kg oral): 10.5 ± 0.3 mg/dL
- Uptake of 3H-TdR in presence of Concanavalin A [1, 5]: 3995 ± 412 cpm
- Uptake of 3H-TdR in presence of Lipopolysaccharide [1, 5]: 3568 ± 372 cpm
- Number of mononucleate (ratio, first group = 1.00) ([1]; po, 0.1 mg/kg, 288 h): 0.68 ± 0.17
- Magnesium level in serum after administration (magnesium level in serum; patient A, 5 µg/day): 2.0 mg/dL
- Magnesium level in serum before administration (magnesium level in serum; patient A): 4.2 mg/dL
- Magnesium level in serum after administration (magnesium level in serum; patient B, 2 µg/day): 2.1 mg/dL
- Magnesium level in serum before administration (magnesium level in serum; patient B): 4.0 mg/dL
- Magnesium level in serum after administration (magnesium level in serum; patient C, 5 µg/day): 1.9 mg/dL
- Magnesium level in serum before administration (magnesium level in serum; patient C): 4.3 mg/dL
- inorganic phosphate level in serum [2]: significant reduction of the inorganic phosphate level
- Concentration of inorganic phosphate after administration, average ([3]; average of 8 patients, 2 to 10 µg/day, 8 weeks): 4.60 ± 0.66 mg/dL
- Concentration of inorganic phosphate before administration, average ([3]; average of 8 patients, baseline): 6.24 ± 0.53 mg/dL
- Concentration of inorganic phosphate after administration ([3]; patient 1 (person six), 10 µg/day, 8 weeks): 5.5 mg/dL
- Concentration of inorganic phosphate before administration ([3]; patient 1 (person six), baseline): 7.2 mg/dL
- Concentration of inorganic phosphate after administration ([3]; patient 2 (person sixteen), 6 µg/day, 8 weeks): 4.7 mg/dL
- Concentration of inorganic phosphate before administration ([3]; patient 2 (person sixteen), baseline): 6.3 mg/dL
- Concentration of inorganic phosphate after administration ([3]; patient 3 (person four), 4 µg/day, 8 weeks): 4.7 mg/dL
- Concentration of inorganic phosphate before administration ([3]; patient 3 (person four), baseline): 5.9 mg/dL
- Concentration of inorganic phosphate after administration ([3]; patient 4 (person twelve), 8 µg/day, 8 weeks): 4.9 mg/dL
- Concentration of inorganic phosphate before administration ([3]; patient 4 (person twelve), baseline): 6.5 mg/dL
- Concentration of inorganic phosphate after administration ([3]; patient 5 (person twenty), 6 µg/day, 8 weeks): 5.3 mg/dL
- Concentration of inorganic phosphate before administration ([3]; patient 5 (person twenty), baseline): 6.6 mg/dL
- Concentration of inorganic phosphate after administration ([3]; patient 6 (person three), 4 µg/day, 8 weeks): 3.8 mg/dL
- Concentration of inorganic phosphate before administration ([3]; patient 6 (person three), baseline): 5.8 mg/dL
- Concentration of inorganic phosphate after administration ([3]; patient 7 (person one), 2 µg/day, 8 weeks): 3.7 mg/dL
- Concentration of inorganic phosphate before administration ([3]; patient 7 (person one), baseline): 5.5 mg/dL
- Concentration of inorganic phosphate after administration ([3]; patient 8 (person ten), 6 µg/day, 8 weeks): 4.2 mg/dL
- Concentration of inorganic phosphate before administration ([3]; patient 8 (person ten), baseline): 6.1 mg/dL
- inorganic phosphate level in serum ([3]; patient of chronic renal failure, normal level 2.5 to 5.5 mg/dl): significantly reduced to the normal level
- histopathological examination of organs [4]: no abnormal findings were obtained
- body weight ([4]; all groups): no significant difference of body weight was observed
- weights of internal organs ([4]; all groups): not significantly different
